Where two headings read alike, the source gives them in different places.
Legend:
human TLR7 = molecular target: T1, human TLR7 (Homo sapiens, UniProt Q9NYK1); test: HEK293-Blue-hTLR-7 cells assay (SEAP reporter, NF-κB activation); format: cell-based; settings: for EC50: HEK293-Blue-hTLR-7 cells, 20 hrs incubation, SEAP reporter; for Ratio (EC50(prodrug)/EC50(active form)): calculated ratio of prodrug EC50 to EC50 of corresponding active form
T1 sequence (Q9NYK1 27-1049): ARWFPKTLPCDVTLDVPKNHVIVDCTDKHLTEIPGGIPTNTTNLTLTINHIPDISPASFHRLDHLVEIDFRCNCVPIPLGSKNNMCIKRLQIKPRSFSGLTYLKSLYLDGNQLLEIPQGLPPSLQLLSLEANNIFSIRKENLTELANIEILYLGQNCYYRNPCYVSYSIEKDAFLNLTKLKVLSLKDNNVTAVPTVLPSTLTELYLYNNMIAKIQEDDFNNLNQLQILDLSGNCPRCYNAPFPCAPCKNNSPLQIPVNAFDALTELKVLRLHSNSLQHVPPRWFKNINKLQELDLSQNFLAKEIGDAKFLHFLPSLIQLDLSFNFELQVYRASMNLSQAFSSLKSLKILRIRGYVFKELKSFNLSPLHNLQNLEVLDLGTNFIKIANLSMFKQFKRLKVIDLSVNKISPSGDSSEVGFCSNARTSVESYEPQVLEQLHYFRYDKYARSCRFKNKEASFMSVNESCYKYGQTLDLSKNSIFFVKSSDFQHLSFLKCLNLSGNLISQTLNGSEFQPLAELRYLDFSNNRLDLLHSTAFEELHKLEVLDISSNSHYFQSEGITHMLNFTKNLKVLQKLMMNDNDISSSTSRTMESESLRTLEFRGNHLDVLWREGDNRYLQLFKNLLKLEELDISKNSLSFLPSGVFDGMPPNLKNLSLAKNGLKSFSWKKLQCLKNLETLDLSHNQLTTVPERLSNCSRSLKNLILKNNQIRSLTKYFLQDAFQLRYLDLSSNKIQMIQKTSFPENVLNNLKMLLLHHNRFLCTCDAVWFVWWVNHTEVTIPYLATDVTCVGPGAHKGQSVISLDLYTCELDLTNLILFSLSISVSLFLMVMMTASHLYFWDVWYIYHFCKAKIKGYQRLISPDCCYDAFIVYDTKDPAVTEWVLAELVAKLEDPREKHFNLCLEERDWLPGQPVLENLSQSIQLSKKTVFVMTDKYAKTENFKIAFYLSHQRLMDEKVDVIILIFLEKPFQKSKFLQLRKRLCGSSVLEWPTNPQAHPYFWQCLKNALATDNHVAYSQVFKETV
Text: HEK293-Blue-hTLR-7 Cells Assay
A stable HEK293-Blue-hTLR-7 cell line was purchased from InvivoGen (Cat. #: hkb-ht1r7, San Diego, Calif., USA). These cells were designed for studying the stimulation of human TLR7 by monitoring the activation of NF-κB. A SEAP (secreted embryonic alkaline phosphatase) reporter gene was placed under the control of the IFN-β minimal promoter fused to five NF-κB and AP-1-binding sites. The SEAP was induced by activating NF-κB and AP-1 via stimulating HEK-Blue hTLR7 cells with TLR7 ligands. Therefore the reporter expression was regulated by the NF-κB promoter upon stimulation of human TLR7 for 20 hrs. The cell culture supernatant SEAP reporter activity was determined using QUANTI-Blue™ kit (Cat. #: rep-qb1, Invivogen, San Diego, Calif., USA) at a wavelength of 640 nm, a detection medium that turns purple or blue in the presence of alkaline phosphatase.
HEK293-Blue-hTLR7 cells were incubated at a density of 250,000˜450,000 cells/mL in a volume of 180 μL in a 96-well plate in Dulbecco's Modified Eagle's medium (DMEM) containing 4.5 g/L glucose, 50 U/mL penicillin, […], […], 2 mM L-glutamine, 10% (V/V) heat-inactivated fetal bovine serum for 24 hrs. Then the HEK293-Blue-hTLR-7 cells were incubated with addition of 20 μL test compound in a serial dilution in the presence of final DMSO at 1% and perform incubation under 37° C. in a CO2 incubator for 20 hrs. Then 20 μL of the supernatant from each well was incubated with 180 μL Quanti-blue substrate solution at 37° C. for 2 hrs and the absorbance was read at 620˜655 nm using a spectrophotometer. The signalling pathway that TLR7 activation leads to downstream NF-κB activation has been widely accepted, and therefore similar reporter assay was also widely used for evaluating TLR7 agonist (Tsuneyasu Kaisho and Takashi Tanaka, Trends in Immunology, Volume 29, Issue 7, July 2008, […]; Hiroaki Hemmi et al, Nature Immunology 3, 196-200 (2002)).
The Compounds and Examples of the present invention were tested in HEK293-hTLR-7 assay for their TLR7 agonism activity as described herein and results are listed in Table 1. […] The calculated ratio of EC50(prodrug)/EC50(active form) were within the range from 27.7 to about 8233.

[1] = Single dose PK study in Male Wister-Han Rats; format: in vivo
Procedure: Single dose PK study in Male Wister-Han Rats The single dose PK in Male Wister-Han Rats was performed to assess pharmacokinetic properties of tested compounds. Two groups of animals were dosed via Gavage (POE) of the respective compound. Blood samples (approximately 20 μL) were collected via Jugular vein or an alternate site at 15 min, 30 min, 1 h, 2 h, 4 h, 7 h and 24 h post-dose groups. Blood samples were placed into tubes containing EDTA-K2 anticoagulant and centrifuged at 5000 rpm for 6 min at 4° C. to separate plasma from the samples. After centrifugation, the resulting plasma was transferred to clean tubes for bioanalysis of both prodrug and active form on LC/MS/MS. In the groups that prodrugs were dosed, the concentration of prodrugs in the plasma samples was under the detection limit. The “tested compound” in Table 3 was used as the internal standard for testing the metabolite (active form) of “dose compound” in vivo. The pharmacokinetic parameters were calculated using non-compartmental module of WinNonlin® Professional 6.2. The peak concentration (Cmax) was recorded directly from experimental observations. The area under the plasma concentration-time curve ([…]) was calculated using the linear trapezoidal rule up to the last detectable concentration. Cmax and AUC0-last are two critical PK parameters related to the in vivo efficacy of the tested compound. […]

[2] = corresponding active form, read-out: HEK293-hTLR-7 EC50 (Active form)
[3] = prodrug, read-out: HEK293-hTLR-7 EC50 (Prodrug)

Row | Compound | EC50 (human TLR7; [2]) [µM] | Cmax (nM) ([1]; 5 mg/kg oral dosing, male Wister-Han rats, plasma, tested compound Compound 8a (active form)) | EC50 (human TLR7; [3]) [µM] | Ratio (EC50(prodrug)/EC50(active form)) (human TLR7) | AUC0-last folds increase comparing with Compound 8a ([1]; oral administration, rats, prodrug versus active form) [folds]
1 | CCS(=O)(=O)c1nc(N)c2[nH]c(=O)n(Cc3ccc(Cl)cc3)c2n1 [Compound 8a, 6-amino-9-[(4-chlorophenyl)methyl]-2-ethylsulfonyl-7H-purin-8-one] | 0.083 | Not detected | – | – | –
2 | CCCN(C)C(=O)n1c(=O)n(Cc2ccc(Cl)cc2)c2nc(S(=O)(=O)CC)nc(N)c21 [Example 8, 6-Amino-9-[(4-chlorophenyl)methyl]-2-ethylsulfonyl-N-methyl-8-oxo-N-propyl-purine-7-carboxamide] | – | – | 14.9 | 179.5 | 14.5
3 | CCCN(C)C(=O)n1c(=O)n(Cc2ccc(Cl)cc2)c2nc(S(=O)(=O)CCC)nc(N)c21 [Example 6, 6-Amino-9-[(4-chlorophenyl)methyl]-N-methyl-8-oxo-N-propyl-2-propylsulfonyl-purine-7-carboxamide] | – | – | 2.6 | 123.8 | –
4 | CCS(=O)(=O)c1nc(N)c2c(n1)n(Cc1ccc(Cl)cc1)c(=O)n2C(=O)N(C)CCOC [Example 11, 6-Amino-9-[(4-chlorophenyl)methyl]-2-ethylsulfonyl-N-(2-methoxyethyl)-N-methyl-8-oxo-purine-7-carboxamide] | – | – | 10.1 | 121.7 | –
5 | CCS(=O)(=O)c1nc(N)c2[nH]c(=O)n(Cc3ccc(Br)cc3)c2n1 [Compound 22a, 6-Amino-2-ethylsulfonyl-9-[(4-bromophenyl)methyl]-7H-purin-8-one] | 0.023 | – | – | – | –
6 | CCS(=O)(=O)c1nc(N)c2[nH]c(=O)n(Cc3ccccc3)c2n1 [Compound 3a, 6-amino-9-benzyl-2-ethylsulfonyl-7H-purin-8-one] | 0.17 | – | – | – | –
7 | CCCN(C)C(=O)n1c(=O)n(Cc2ccc(Br)cc2)c2nc(S(=O)(=O)CC)nc(N)c21 [Example 22, 6-Amino-9-[(4-bromophenyl)methyl]-2-ethylsulfonyl-N-methyl-N-propyl-8-oxo-purine-7-carboxamide] | – | – | 13.1 | 570 | –
8 | CCCS(=O)(=O)c1nc(N)c2c(n1)n(Cc1ccccc1)c(=O)n2C(=O)N(C)CC [Example 1, 6-Amino-9-benzyl-N-ethyl-N-methyl-8-oxo-2-propylsulfonyl-purine-7-carboxamide] | – | – | 10.9 | 145.3 | –

Reference: US11220502B2, “Sulfone compounds and derivatives for the treatment and prophylaxis of virus infection” (Hoffmann-La Roche Inc., priority 2018, dated 2022)
